Reference: ChEMBL document CHEMBL3046026, “Evaluation of the curative and protectant activity of fungicides and fungicide-adjuvant mixtures on Phomopsis cane and leaf spot of grape: A controlled environment study” (2007)
The source made the active and inactive calls. No cut-off for these calls is given here.

Tests used:
[1] = system: Diaporthe ampelina; assay: Antifungal activity against Diaporthe ampelina infected grape plant assessed as disease severity at internodes at 0.25 […] a.i./ha treated 3 to 6 hr prior to inoculation followed by 24 hr wetness period measured after 4 weeks (reference value: 2.6%); assay type: functional
[2] = system: Diaporthe ampelina; assay: Antifungal activity against Diaporthe ampelina infected grape plant assessed as decrease in lesions on leaf at 0.25 […] a.i./ha incubated for 24 hr prior to treatment with 20 hr wetness period followed by 4 hr of drying period measured after 4 weeks relative to control in presence of regulaid; assay type: functional, organism-based
[3] = system: Diaporthe ampelina; assay: Antifungal activity against Diaporthe ampelina infected grape plant assessed as decrease in lesions on leaf at 0.25 […] a.i./ha incubated for 20 hr prior to treatment with 16 hr wetness period followed by 4 hr of drying period measured after 4 weeks relative to control in presence of regulaid; assay type: functional, organism-based
[4] = system: Diaporthe ampelina; assay: Antifungal activity against Diaporthe ampelina infected grape plant assessed as decrease in lesions on leaf at 1.7 m3/ha incubated for 24 hr prior to treatment with 20 hr wetness period followed by 4 hr of drying period measured after 4 weeks relative to control in presence of regulaid; assay type: functional, organism-based
[5] = system: Diaporthe ampelina; assay: Antifungal activity against Diaporthe ampelina infected grape plant assessed as decrease in lesions on leaf at 0.25 […] a.i./ha incubated for 48 hr prior to treatment with 24 hr wetness period followed by 24 hr of drying period measured after 4 weeks relative to control in presence of regulaid; assay type: functional, organism-based
[6] = system: Diaporthe ampelina; assay: Antifungal activity against Diaporthe ampelina infected grape plant assessed as disease severity at internodes at 0.25 […] a.i./ha incubated for 20 hr prior to treatment with 16 hr wetness period followed by 4 hr of drying period measured after 4 weeks in presence of regulaid (reference value: 7.3%); assay type: functional
[7] = system: Diaporthe ampelina; assay: Antifungal activity against Diaporthe ampelina infected grape plant assessed as disease severity at internodes at 0.25 […] a.i./ha treated 3 to 6 hr prior to inoculation followed by 24 hr wetness period measured after 4 weeks in presence of regulaid (reference value: 2.9%); assay type: functional
[8] = system: Diaporthe ampelina; assay: Antifungal activity against Diaporthe ampelina infected grape plant assessed as decrease in lesions on leaf at 0.25 […] a.i./ha treated 3 to 6 hr prior to inoculation followed by 24 hr wetness period measured after 4 weeks relative to control; assay type: functional, organism-based
[9] = system: Diaporthe ampelina; assay: (§1) Antifungal activity against Diaporthe ampelina infected grape plant assessed as disease severity at internodes at 0.25 […] a.i./ha incubated for 24 hr prior to treatment with 20 hr wetness period followed by 4 hr of drying period measured after 4 weeks in presence of regulaid (reference value: 4.7%); assay type: functional
[10] = system: Diaporthe ampelina; assay: Antifungal activity against Diaporthe ampelina infected grape plant assessed as re-isolation of mycelium from infected vines at 0.25 […] a.i./ha treated for weeks in presence of regulaid followed by inoculation on medium measured after 72 hr (reference value: 62.5%); assay type: functional
[11] = system: Diaporthe ampelina; assay: Antifungal activity against Diaporthe ampelina infected grape plant assessed as disease severity at internodes at 1.7 m3/ha incubated for 24 hr prior to treatment with 20 hr wetness period followed by 4 hr of drying period measured after 4 weeks in presence of regulaid (reference value: 3.2%); assay type: functional
[12] = system: Diaporthe ampelina; assay: Antifungal activity against Diaporthe ampelina infected grape plant assessed as decrease in lesions on leaf at 0.25 […] a.i./ha treated 3 to 6 hr prior to inoculation followed by 24 hr wetness period measured after 4 weeks relative to control in presence of regulaid; assay type: functional, organism-based
[13] = system: Diaporthe ampelina; assay: as §1, with “for 48” for “for 24”, “with 24” for “with 20”, “by 24” for “by 4”, “value: 12.2%)” for “value: 4.7%)”; assay type: functional

Q: For `CO/C=C(/C(=O)OC)c1ccccc1Oc1cc(Oc2ccccc2C#N)ncn1` [AZOXYSTROBIN], which Activity [1] is on record?
A: The Activity was 0.3%.

Q: And the Activity [2]?
A: Its Activity is “inactive”.

Q: What about the Activity [3] of the same compound?
A: The Activity was “inactive”.

Q: What about the Activity [4] of the same compound?
A: Its Activity is “inactive”.

Q: And the Activity [5]?
A: Its Activity is “inactive”.

Q: And the Activity [6]?
A: Its Activity is 5.3%.

Q: And the Activity [7]?
A: Its Activity is 0.1%.

Q: And the Activity [8]?
A: The Activity was “Active”.

Q: What about the Activity [9] of the same compound?
A: The Activity was 4.9%.

Q: And the Activity [10]?
A: The Activity was 8.4%.

Q: What about the Activity [11] of the same compound?
A: Its Activity is 3.2%.

Q: And the Activity [12]?
A: The Activity was “Active”.

Q: What about the Activity [13] of the same compound?
A: The Activity was 3.7%.
